Test results as given in patent US20040192625A1, “Adrenergic receptor overexpression in airway tissues for the treatment of airway obstructive diseases” (priority 2000, published 2004).
“And” between values parts separate entries of the source, which are not always exact repeats. Equal values may be shown once. “Also recorded” adds a separate entry of the source.

Tests used:
tracheal rings = experiment: Ex vivo tracheal ring contractility / relaxation (organ bath)
Description: Ex vivo assessment of airway function in transgenic and nontransgenic mice. Tracheal contractility was measured using ring preparations that were mounted on wires connected to pressure transducers and immersed in organ baths. The absolute contractile force evoked by acetylcholine is shown in (A). […] Rings were pre-contracted to the same extent with 10 μM acetylcholine for these studies. […] Curves shown represent the mean±SE of data generated from four different mice in each group.
Ex vivo Smooth Muscle Studies. […] Briefly, tracheas were excised and dissected free of surrounding tissues and cut into rings of approximately 5 mm in length. The trachea rings were mounted on stainless steel wires connected to isometric force transducers. […] Each tracheal ring was stretched to a tension of 5 mN, an optimal passive tension for maximizing active force (27). After a 20 min equilibration period, contraction/relaxation cycles with 10 μM acetylcholine were performed until consistent forces were observed. Cumulative concentration-isometric force curves were then generated to acetylcholine (1 nM-30 μM). After rinsing, tracheas were contracted with 10 μM acetylcholine (approximately the ED80) and cumulative concentration-relaxation curves were generated to isoproterenol (30 pM-10 μM). Concentration-response relations were fitted to a logistic equation (26).

[1] = tested on: airway responsiveness in conscious, unrestrained mice; experiment: In vivo airway responsiveness to methacholine by whole body plethysmography (Penh); parameters: species or system mouse; details: for maximal Penh to methacholine after albuterol pretreatment: aerosolized albuterol 0.1 mg/ml for 20 min; for maximal Penh (bronchoconstriction induced by methacholine): no pretreatment
Description: FIG. 9. In vivo measurement of airway hyperreactivity in conscious, unrestrained mice. Airway responsiveness to methacholine was assessed using a rodent whole body plethysmography system to measure Penh (see EXPERIMENTAL PROCEDURES). The mice were first treated with aerosolized PBS to establish baseline function, which was then followed by increasing doses of aerosolized methacholine. On a separate day, the same mice were first pretreated with aerosolized albuterol (0.1 mg/ml) for 20 min. Penh values are reported as percent of the PBS (baseline) value. Bronchoconstriction was greatest in the untreated, NTG control mice (n=12) with a maximal increase in Penh of 558±42%. Pretreatment with albuterol lowered the maximal increase in Penh to 373±33% (p<0.02). The maximum Penh achieved in the transgenic mice (250±26%, n=9) was less than that of both the untreated (p<0.001) and the pretreated NTG mice (p<0.02).
In Vivo Airway Physiology. Airway responsiveness to methacholine was measured noninvasively in conscious, unrestrained mice using a whole body plethysmograph (Buxco Electronics, Troy N.Y.) (28). Using this system, the volume changes that occur during a normal respiratory cycle are recorded as the pressure difference between the animal-containing chamber and a reference chamber. The resulting signal is used to calculate respiratory frequency, minute volume, tidal volume, and enhanced pause (Penh). Penh is a unitless value that is a function of the peak inspiratory (PIP) and peak expiratory (PEP) pressures and the timing of expiration and is calculated as: […]
where Pause is the ratio of time spent in the last third of expiration relative to early expiration. […] Mice were placed in the chamber and allowed to adjust to their surroundings for 10 min. They were then exposed to aerosolized PBS (to establish baseline), followed by increasing concentrations of methacholine (2.5 to 80 mg/ml). Aerosolization was for 3 min and respiratory measurements were recorded and averaged for the subsequent 5 min after each dose. The degree of bronchoconstriction was expressed as the percent change in Penh relative to the PBS baseline. On a separate day, the mice were submitted to the same protocol except that they were first treated with aerosolized albuterol (0.1 mg/ml) for 20 min. The concentration-response data for each individual mouse were fit to a sigmoid curve by an iterative least squares technique, and the dose of methacholine required to double baseline Penh (ED200) was derived.

β2AR [2] = details: membranes from nontransgenic cells, absence of GTP
Description: Radioligand Binding and cAMP Studies. To prepare membranes from lung tissue, lungs from an individual mouse were homogenized with a Polytron (Brinkman) in 10 ml of hypotonic lysis buffer (5 mM Tris, pH 7.4, 2 mM EDTA) containing the protease inhibitors leupeptin, aprotinin, benzamidine and soybean trypsin inhibitor (10 μg/ml each). Detached smooth muscle cells from primary cultures were processed similarly. Homogenates were centrifuged at 40,000×g for 10 min at 4° C. […] Competition data were fit to a two-site model when this fit was statistically (p<0.05) better than a one-site fit by F-test, using Prizm software (GraphPad, San Diego Calif.). Receptor density on the cell surface was assessed using methods previously described (24). […] After trypsin activity was neutralized by the addition of FCS, the cells were washed with PBS and resuspended in DMEM. […] Bound radioactivity was separated by filtration and washing over GF/C glass fiber filters. Cyclic AMP content of attached mouse smooth muscle cells in culture exposed to 10 µM isoproterenol or carrier for 10 min was measured by an acetylated radioimmunoassay method as described (19). Adenylyl cyclase activity was measured in membranes prepared as above using column chromatography as previously described (25).

adenylyl cyclase = experiment: Adenylyl cyclase activity in tracheal smooth muscle cell membranes; type: biochemical, mouse; details: for maximal isoproterenol stimulated adenylyl cyclase activity: 10 μM isoproterenol, n=4
Description: (§1) FIG. 7. cAMP production and adenylyl cyclase activity in isolated tracheal smooth muscle cells. […] Results are from four independent experiments. (B) Adenylyl cyclase activity was measured in membranes prepared from tracheal smooth muscle cells of transgenic and nontransgenic mice. Reactions were carried out in the presence of the indicated concentrations of isoproterenol for 10 min at 37° C. Detection of [^32P]cAMP produced was determined by column chromatography. Shown is a representative dose response curve.
Radioligand Binding and cAMP Studies. To prepare membranes from lung tissue, lungs from an individual mouse were homogenized with a Polytron (Brinkman) in 10 ml of hypotonic lysis buffer (5 mM Tris, pH 7.4, 2 mM EDTA) containing the protease inhibitors leupeptin, aprotinin, benzamidine and soybean trypsin inhibitor (10 μg/ml each). Detached smooth muscle cells from primary cultures were processed similarly. Homogenates were centrifuged at 40,000×g for 10 min at 4° C. […] Competition data were fit to a two-site model when this fit was statistically (p<0.05) better than a one-site fit by F-test, using Prizm software (GraphPad, San Diego Calif.). Receptor density on the cell surface was assessed using methods previously described (24). […] After trypsin activity was neutralized by the addition of FCS, the cells were washed with PBS and resuspended in DMEM. […] Binding to receptors localized throughout the cell was defined as that displaced by propranolol, while cell surface binding was defined as that displaced by CGP12177 (24). Bound radioactivity was separated by filtration and washing over GF/C glass fiber filters. Cyclic AMP content of attached mouse smooth muscle cells in culture exposed to 10 µM isoproterenol or carrier for 10 min was measured by an acetylated radioimmunoassay method as described (19). Adenylyl cyclase activity was measured in membranes prepared as above using column chromatography as previously described (25).

β2AR [3] = molecular target: β2AR (Mus musculus, UniProt P18762)
Chain of β2AR (Mus musculus, UniProt P18762) (P18762 whole entry): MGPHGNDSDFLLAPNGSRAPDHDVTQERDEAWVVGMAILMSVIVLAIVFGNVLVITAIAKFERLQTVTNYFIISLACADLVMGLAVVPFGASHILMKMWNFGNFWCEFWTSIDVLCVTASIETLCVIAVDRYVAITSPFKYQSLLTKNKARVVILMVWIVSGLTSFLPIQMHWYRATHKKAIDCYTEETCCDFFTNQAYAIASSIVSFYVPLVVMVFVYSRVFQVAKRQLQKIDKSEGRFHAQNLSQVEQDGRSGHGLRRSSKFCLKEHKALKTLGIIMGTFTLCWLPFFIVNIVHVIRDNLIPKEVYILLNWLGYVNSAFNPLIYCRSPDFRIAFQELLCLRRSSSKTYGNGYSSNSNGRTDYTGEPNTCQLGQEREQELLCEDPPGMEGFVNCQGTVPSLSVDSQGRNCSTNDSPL
Description: as §1
Radioligand Binding and cAMP Studies. To prepare membranes from lung tissue, lungs from an individual mouse were homogenized with a Polytron (Brinkman) in 10 ml of hypotonic lysis buffer (5 mM Tris, pH 7.4, 2 mM EDTA) containing the protease inhibitors leupeptin, aprotinin, benzamidine and soybean trypsin inhibitor (10 μg/ml each). […] Receptor density on the cell surface was assessed using methods previously described (24). […] Bound radioactivity was separated by filtration and washing over GF/C glass fiber filters. Cyclic AMP content of attached mouse smooth muscle cells in culture exposed to 10 µM isoproterenol or carrier for 10 min was measured by an acetylated radioimmunoassay method as described (19). Adenylyl cyclase activity was measured in membranes prepared as above using column chromatography as previously described (25).

[4] = molecular target: stimulatory guanine nucleotide binding protein (Gs) (mouse) (UniProt P63094); experiment: cell-based or functional assay
Chain of stimulatory guanine nucleotide binding protein (Gs) (mouse) (P63094 2-394): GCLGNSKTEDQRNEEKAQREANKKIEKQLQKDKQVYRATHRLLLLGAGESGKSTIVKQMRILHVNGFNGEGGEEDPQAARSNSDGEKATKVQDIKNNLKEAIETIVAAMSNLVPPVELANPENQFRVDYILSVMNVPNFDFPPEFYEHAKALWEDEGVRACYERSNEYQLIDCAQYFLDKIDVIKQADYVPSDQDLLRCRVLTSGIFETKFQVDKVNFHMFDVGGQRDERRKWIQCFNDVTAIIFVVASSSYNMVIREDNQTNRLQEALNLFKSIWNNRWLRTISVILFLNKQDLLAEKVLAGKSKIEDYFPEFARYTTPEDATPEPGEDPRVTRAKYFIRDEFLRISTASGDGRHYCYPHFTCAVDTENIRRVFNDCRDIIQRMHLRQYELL

Compound: Cc1ccc(OCC(O)C(C)NC(C)C)c2c1CCC2 (stereo not drawn) [ICI 118,551]
- effect on enhanced isoproterenol-induced relaxation in SMP8-β2AR mice (tracheal rings; pretreatment 0.1 μM): blocked; also recorded: abolished

Compound: CC(C)(C)NCC(O)c1ccc(O)c(CO)c1 (stereo not drawn) [albuterol]
- methacholine-induced increase in Penh after albuterol pretreatment ([1]; SMP8-β2AR mice, methacholine up to 80 mg/ml): no increase in Penh; also recorded: no methacholine-induced bronchoconstriction was observed
- maximal Penh to methacholine after albuterol pretreatment ([1]; SMP8-β2AR transgenic mice): 146±12 % of baseline and 138±11 % of baseline
- maximal Penh to methacholine after albuterol pretreatment ([1]; nontransgenic mice): 373±33 % of baseline

Compound: CC(C)NCC(O)c1ccc(O)c(O)c1 (stereo not drawn) [isoproterenol]
- maximal extent of relaxation, transgenic vs nontransgenic rings (tracheal rings; isoproterenol, rings pre-constricted with 10 μM acetylcholine): equivalent
- proportion of receptors in the high affinity state (% RH) (β2AR [2]): 36±6.7%
- percent isoproterenol stimulation of adenylyl cyclase over basal (adenylyl cyclase; nontransgenic membranes): ~46%
- maximal isoproterenol stimulated adenylyl cyclase activity (adenylyl cyclase; nontransgenic membranes): 251 ± 7.3 pmol/min/mg
- percent isoproterenol stimulation of adenylyl cyclase over basal (adenylyl cyclase; transgenic membranes): ~125%
- maximal isoproterenol stimulated adenylyl cyclase activity (adenylyl cyclase; transgenic membranes): 609 ± 74.7 pmol/min/mg
- maximal Penh to methacholine after acute albuterol in mice pretreated with isoproterenol ([1]; SMP8-β2AR transgenic mice, isoproterenol by osmotic minipump for three continuous days): 128±1 % of baseline
- isoproterenol-stimulated cAMP content (β2AR [3]; nontransgenic airway smooth muscle cells, 10 min, n=5): 2.05 ± 0.10 pmol/mL
- isoproterenol-stimulated cAMP, percent-stimulation over basal (β2AR [3]; nontransgenic cells): ~50%

Compound: CC(=O)OC(C)C[N+](C)(C)C (stereo not drawn) [methacholine]
- maximal Penh (bronchoconstriction induced by methacholine) ([1]; SMP8-β2AR transgenic mice, n=9): 250±26 % of baseline
- ED200 (dose of methacholine required to double baseline Penh) ([1]; SMP-β2AR mice): 35.7 ± 10.6 mg/mL
- ED200 (dose of methacholine required to double baseline Penh) ([1]; nontransgenic mice): 12.1 ± 1.90 mg/mL
- maximal Penh (bronchoconstriction induced by methacholine) ([1]; nontransgenic mice, n=12): 558±42 % of baseline

Compound: endogenous β-adrenergic receptor of tracheal smooth muscle cells from nontransgenic mice (from UniProt P18762 1-418)
- proportion of receptors in the high affinity state (% RH), isoproterenol competition of [125I]CYP binding in the absence of GTP [4]: 36%
